In assay [1] the target is T1, MRP3 (ABCC3) (Homo sapiens, UniProt O15438). The assay can be described thus: inhibition of ATP-dependent [3H]-E217G uptake, membrane vesicles. Conditions: 10 μM E217G, 5 min, 37 °C, 100 μM compound, value is remaining uptake.
In assay [2] the target is T1, MRP3 (ABCC3). Described as above. The class given is biochemical.

The structures appear in SMILES notation. Read-outs that look alike come from different tables or passages of the source.

T1 sequence (O15438 whole entry): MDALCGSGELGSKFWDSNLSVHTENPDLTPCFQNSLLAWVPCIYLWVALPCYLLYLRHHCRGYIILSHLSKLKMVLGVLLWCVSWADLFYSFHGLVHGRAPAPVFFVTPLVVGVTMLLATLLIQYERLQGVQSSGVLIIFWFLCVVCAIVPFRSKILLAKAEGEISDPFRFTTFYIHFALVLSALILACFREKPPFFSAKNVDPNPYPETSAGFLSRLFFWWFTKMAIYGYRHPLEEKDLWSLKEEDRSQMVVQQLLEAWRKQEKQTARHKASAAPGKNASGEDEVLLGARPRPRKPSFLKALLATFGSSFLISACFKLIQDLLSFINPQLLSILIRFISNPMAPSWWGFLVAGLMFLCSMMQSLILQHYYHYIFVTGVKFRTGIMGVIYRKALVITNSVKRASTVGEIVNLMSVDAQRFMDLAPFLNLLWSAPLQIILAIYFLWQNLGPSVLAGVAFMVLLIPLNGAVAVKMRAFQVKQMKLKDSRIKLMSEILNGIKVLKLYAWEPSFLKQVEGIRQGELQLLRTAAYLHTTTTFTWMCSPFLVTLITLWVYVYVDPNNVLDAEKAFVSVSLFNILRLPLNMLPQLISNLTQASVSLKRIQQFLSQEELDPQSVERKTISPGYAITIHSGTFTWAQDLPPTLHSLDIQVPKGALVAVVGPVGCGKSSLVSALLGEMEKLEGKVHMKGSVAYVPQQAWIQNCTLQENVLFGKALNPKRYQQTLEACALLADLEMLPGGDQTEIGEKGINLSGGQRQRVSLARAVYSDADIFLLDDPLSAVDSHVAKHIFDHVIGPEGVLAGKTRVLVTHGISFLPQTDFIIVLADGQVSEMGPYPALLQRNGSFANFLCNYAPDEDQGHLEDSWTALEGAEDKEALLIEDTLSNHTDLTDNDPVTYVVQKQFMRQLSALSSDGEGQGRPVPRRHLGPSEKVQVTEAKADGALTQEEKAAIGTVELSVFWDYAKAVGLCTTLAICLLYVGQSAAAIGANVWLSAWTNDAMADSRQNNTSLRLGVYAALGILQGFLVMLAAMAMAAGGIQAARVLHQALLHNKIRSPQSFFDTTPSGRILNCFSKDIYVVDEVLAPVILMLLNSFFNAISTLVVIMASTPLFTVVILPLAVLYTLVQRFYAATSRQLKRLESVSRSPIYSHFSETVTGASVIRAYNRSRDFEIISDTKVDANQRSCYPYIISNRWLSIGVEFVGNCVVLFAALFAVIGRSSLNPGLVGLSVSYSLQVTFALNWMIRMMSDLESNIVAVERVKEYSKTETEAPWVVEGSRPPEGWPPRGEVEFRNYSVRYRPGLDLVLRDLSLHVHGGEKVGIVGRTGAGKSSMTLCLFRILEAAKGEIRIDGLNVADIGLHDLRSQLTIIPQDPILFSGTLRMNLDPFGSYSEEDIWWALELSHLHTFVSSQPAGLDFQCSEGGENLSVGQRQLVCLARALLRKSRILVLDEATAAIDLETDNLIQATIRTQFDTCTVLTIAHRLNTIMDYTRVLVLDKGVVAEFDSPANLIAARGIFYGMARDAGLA

As to `COC(=O)N[C@H](C(=O)N[C@@H](Cc1ccccc1)[C@@H](O)CN(Cc1ccc(-c2ccccn2)cc1)NC(=O)[C@@H](NC(=O)OC)C(C)(C)C)C(C)(C)C` [atazanavir], the “E217G uptake, % of control at 100 μM” value on MRP3 (ABCC3) [1] came to 55.0%.
On to `NS(=O)(=O)c1cc2c(cc1Cl)NC=NS2(=O)=O` [Chlorothiazide], for which the “E217G uptake, % of control at 100 μM” value at MRP3 (ABCC3) [1] stood at 37.4%.
Consider `CCOC(=O)C1=C(C)NC(C)=C(C(=O)OC)C1c1cccc(Cl)c1Cl` (stereo not drawn) [felodipine], for which the “E217G uptake, % of control at 100 μM” value on MRP3 (ABCC3) [1] was 45.8%.
With `CCCCc1oc2ccc(NS(C)(=O)=O)cc2c1C(=O)c1ccc(OCCCN(CCCC)CCCC)cc1` [dronedarone], it took 47.4 ± 4.41 µM to reach half-maximal inhibition at MRP3 (ABCC3) [2] (IC50).
Still for that read-out and setting: in the case of `Cc1ccc(C(=O)Nc2ccc(S(=O)(=O)O)c3cc(S(=O)(=O)O)cc(S(=O)(=O)O)c23)cc1NC(=O)c1cccc(NC(=O)Nc2cccc(C(=O)Nc3cc(C(=O)Nc4ccc(S(=O)(=O)O)c5cc(S(=O)(=O)O)cc(S(=O)(=O)O)c45)ccc3C)c2)c1` [suramin] it was 3.33 ± 0.41 µM.
On to `CC[C@H](C)C(=O)O[C@H]1C[C@@H](C)C=C2C=C[C@H](C)[C@H](CC[C@@H]3C[C@@H](O)CC(=O)O3)[C@H]21` [lovastatin], for which the “E217G uptake, % of control at 100 μM” value at MRP3 (ABCC3) [1] was 63.5%.
Still for that read-out and setting: in the case of `CNC(=O)c1cc(Oc2ccc(NC(=O)Nc3ccc(Cl)c(C(F)(F)F)c3)c(F)c2)ccn1` [regorafenib] it was 69.5%.
For `CCc1c(Cl)c(O)c(Cl)c(O)c1C(=O)O[C@H]1[C@H](O)[C@H](OC)[C@H](OC/C2=C\C=C\C[C@H](O)/C(C)=C/[C@H](CC)[C@@H](O[C@@H]3OC(C)(C)[C@@H](OC(=O)C(C)C)[C@H](O)[C@@H]3O)/C(C)=C/C(C)=C/C[C@@H]([C@@H](C)O)OC2=O)O[C@@H]1C` [fidaxomicin], at MRP3 (ABCC3) [2] (10 μM E217G, ATP, 5 min, 37 °C, 0.1-100 μM inhibitor), the midpoint of inhibition, the IC50, lay at 1.83 ± 0.46 µM.
For the compound `OCCN(CCO)c1nc(N2CCCCC2)c2nc(N(CCO)CCO)nc(N3CCCCC3)c2n1` [dipyridamole], the “E217G uptake, % of control at 100 μM” value at MRP3 (ABCC3) [1] is given as 52.1%.

Source of the values: paper PMC5450158 (European journal of pharmaceutical sciences : official …, 2017).
